In patent US20110105389A1 (priority 2009, published 2011):

Experiments:
[1] = Metabolic stability in human liver microsomes, Method B8; assay type: in vitro ADME; settings: human liver microsomes 0.8 mg/mL, 5 μM compound, 37° C.
Source text: B8. Metabolic Stability in Human Liver Microsomes
The liver is the primary site for phase I (oxidation) and phase II (glucuronidation) enzymatic activity responsible for xenobiotic metabolism. Human liver microsomes are used as in vitro screen of metabolic activity for candidate drugs. Similar studies can be run with microsomes from other species, such as those used for in vivo studies, to determine any significant species differences in the stability profile. The aim of this study was to measure the broad-spectrum metabolic stability of representative compounds of the invention. The key aspects of the experimental design are summarized below: • Human liver microsomes (mixed pool of 15 male and female donors) were purchased from In Vitro Technologies (Baltimore, Md.). • Microsomes characterized for phase I (Cyp2A6, 2D6, 2E1, 1A2, 2C19, 3A4, 4A) and phase II (glucuronidation) enzymatic activity. • Assays are performed using a final concentration of 0.8 mg/mL of microsomes in 100 mM potassium phosphate buffer (1.5 mM NADPH, 8 mM MgCl2, pH 7.4, 37° C.). • Compounds are tested in duplicate samples at a single concentration of 5 μM (0.05% DMSO). • Test articles are incubated with the microsomes at 37° C.

[2] = biological target: T1, GHS-R1a receptor (HEK293 cells expressing GHS-R1a receptor) (Homo sapiens, UniProt Q92847); test: Fluorescence functional assay (ghrelin receptor), Method B2, agonist and antagonist mode; assay type: cell-based; settings: functional activity as an antagonist at the ghrelin receptor, Methods B2 and B3
T1 construct: host or cells: HEK293
Summary of the method: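 Calcium flux read by ImageTrak epifluorescence in HEK293 cells stably expressing GHS-R1a, loaded 1 h at 37 °C with Calcium-3 dye; buffer HBSS/20 mM Hepes, pH 7.4, with probenecid and BSA. Agonists injected after 10 s baseline, read 50 s more; antagonists 3 min. Sigmoidal fits gave EC50 or IC50.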

[3] = biological target: T2, human ghrelin receptor (GRLN, growth hormone secretagogue receptor, hGHS-R1a) (Homo sapiens, UniProt Q92847); test: Competitive radioligand binding assay (ghrelin receptor), Method B1; settings: Ghrelin receptor binding activity, Method B1
T2 construct: purchased PerkinElmer BioSignal #RBHGHSM, lot#1887; host or cells: HEK-293 cells, stably transfected (membranes)
Summary of the method: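 Membranes incubated with compound 30 min at rt in 25 mM Hepes pH 7.4, 1 mM CaCl2, 5 mM MgCl2, 2.5 mM EDTA, 0.4% BSA, max 0.1% DMSO; filtered on PEI-soaked GF/C, washed with cold Tris, scintillation counted. Curves fitted by variable-slope non-linear regression.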

[4] = biological target: T3, ghrelin receptor (HEK-GHSR1 stable cells) (Homo sapiens, UniProt Q92847); test: Ghrelin receptor inverse agonist assay (HTRF IP-one), Method B4; assay type: cell-based; settings: inverse agonist at the ghrelin receptor, Method B4
T3 construct: expressed in transfected cells
Source text: B4. Ghrelin Receptor Inverse Agonist Assay […]
In addition, the following method can be utilized to assay for inverse agonist activity. (Thomsen, W.; et al. Curr. Opin. Biotechnol. 2005, 16, 655-665; Tozawa-Takahashi F; et al., 11th SBS Annual Conference. September 2005, Geneva; Trinquet, E.; Fink, M.; Bazin, H.; et al. Anal. Biochem. 2006, 358, 126-135; Bergsdorf, C.; Kropp-Goerkis, C.; Kaehler, I.; Ketscher, L.; Boerner, U.; Parczyk, K.; Bader, B. Assay Drug Dev. Technol. 2008, 6, 39-53.)
• 1. Remove culture medium from the plate by inversion. • 2. Add 70 μl of compound/well. • 3. Incubate 30 min at 37° C. • 4. Stop the reaction by adding 15 μl of lysis buffer/well. • 5. Add 15 μl of d2/well. • 6. Add 15 μl of Anti-IP1 cryptate/well. • 7. Incubate 1 h at room temp on an orbital shaker at 100 RPM. • 8. Read the fluorescence in a plate reader (Tecan GeniosPro or similar)
The above sequence was performed using the HTRF IP-one kit (CisBio cat#62P1APEC). For the simultaneous assay of multiple test compounds, 96-well plates can be utilized in this assay (white plate with flat-bottom well, Falcon #353296). These were seeded overnight with 100 000 of HEK-GHSR1 stable cells/well. • Wells A1 and A2 of each plate are used as negative control (wells without d2). Compounds are typically tested in replicate at the following concentrations:
Compounds are stored at 10 mM in 100% DMSO.
1st dilution 1/10 in 100% DMSO (1 mM final concentration).
2nd dilution 1/10 in H2O (0.1 mM final concentration).
Other dilutions are performed in a 96-well plate in stimulation buffer.
The results for representative compounds of the invention are provided in the Examples.

T1 sequence (Q92847 whole entry): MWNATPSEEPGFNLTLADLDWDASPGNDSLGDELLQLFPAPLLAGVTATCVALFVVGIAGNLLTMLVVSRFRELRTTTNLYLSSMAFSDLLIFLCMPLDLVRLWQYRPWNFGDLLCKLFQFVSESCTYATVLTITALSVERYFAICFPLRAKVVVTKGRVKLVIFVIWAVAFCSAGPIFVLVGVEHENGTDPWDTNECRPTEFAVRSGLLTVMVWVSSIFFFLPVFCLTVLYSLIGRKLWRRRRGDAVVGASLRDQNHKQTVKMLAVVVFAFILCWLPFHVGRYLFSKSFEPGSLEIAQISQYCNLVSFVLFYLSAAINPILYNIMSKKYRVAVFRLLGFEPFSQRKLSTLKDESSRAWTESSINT
T3 sequence (Q92847 whole entry): as above
T2 sequence (Q92847 whole entry): as above

HLM, metabolic stability in human liver microsomes [1] | Antagonist Activity [2] | IC50 [3] | IC50 [4] | SMILES
30.5 μL/min/mg protein | B (B = 1-10 nM) |  |  | COc1cccc(C[C@H]2NC(=O)[C@H](C(C)O)N(C)C(=O)[C@H](C(C)C)NCCOc3ccccc3CC[C@@H](C)NC2=O)c1 (stereo partly shown) [Compound 1371]
60.8 μL/min/mg protein | A (A <1 nM) |  |  | CC(C)[C@@H]1NCCOc2ccccc2CC[C@@H](C)NC(=O)[C@@H](Cc2ccc(F)c(F)c2)NC(=O)[C@H](C(C)O)N(C)C1=O (stereo partly shown) [Compound 1372]
31 μL/min/mg protein | A (A <1 nM) |  |  | Cc1cccc(C[C@H]2NC(=O)[C@H](C(C)O)N(C)C(=O)[C@H](C(C)C)NCCOc3ccccc3CC[C@@H](C)NC2=O)c1 (stereo partly shown) [Compound 1373]
35.8 μL/min/mg protein | B (B = 1-10 nM) |  |  | CC(C)[C@@H]1NCCOc2ccccc2CC[C@@H](C)NC(=O)[C@@H](Cc2cccc(C#N)c2)NC(=O)[C@H](C(C)O)N(C)C1=O (stereo partly shown) [Compound 1374]
32.2 μL/min/mg protein | C (C = 10-100 nM) |  |  | CC(C)[C@@H]1NCCOc2c(F)cccc2CCCNC(=O)[C@@H](Cc2ccccc2)NC(=O)[C@H](C(C)O)N(C)C1=O (stereo partly shown) [Compound 1376]
42.9 μL/min/mg protein | C (C = 10-100 nM) |  |  | CC(C)[C@@H]1NCCOc2cccc(F)c2CCCNC(=O)[C@@H](Cc2ccccc2)NC(=O)[C@H](C(C)O)N(C)C1=O (stereo partly shown) [Compound 1378]
46.6 μL/min/mg protein | B (B = 1-10 nM) |  |  | CC[C@@H]1CCc2ccccc2OCCN[C@@H](C(C)C)C(=O)N(C)[C@@H](C(C)O)C(=O)N[C@H](Cc2ccccc2)C(=O)N1 (stereo partly shown) [Compound 1393]
10.4 μL/min/mg protein | B (B = 1-10 nM) |  |  | Cc1cccc(C[C@H]2NC(=O)[C@H](C(C)O)N(C)C(=O)[C@H](C(C)C)NCCOc3cc(F)ccc3CC[C@@H](C)NC2=O)c1 (stereo partly shown) [Compound 1451]
21.8 μL/min/mg protein |  | 1 to 10 nM | 50 to 100 nM | CC(C)C1NCCOc2cc(F)ccc2C=CCNC(=O)C(Cc2ccc(F)cc2)NC(=O)C(C(C)O)N(C)C1=O (stereo not shown) [Compound 1690]
53.7 μL/min/mg protein |  | 1 to 10 nM | 100 to 500 nM | CC(C)C1NCCOc2ccccc2C#CCNC(=O)C(Cc2cccc(F)c2)NC(=O)C(C(C)O)N(C)C1=O (stereo not shown) [Compound 1691]
85.2 μL/min/mg protein | C (C = 10-100 nM) | 10 to 100 nM | 100 to 500 nM | CCC(C)C1NCCOc2ccccc2CCCNC(=O)C(Cc2ccc(Cl)cc2)NC(=O)C(C(C)O)N(C)C1=O (stereo not shown) [Compound 1699]
14.1 μL/min/mg protein |  | 1 to 10 nM | 50 to 100 nM | CC(C)C1NCCOc2cc(F)ccc2C=CCNC(=O)C(Cc2ccccc2)NC(=O)C(C(C)O)N(C)C1=O (stereo not shown) [Compound 1702]
33.5 μL/min/mg protein |  | 10 to 100 nM | 100 to 500 nM | CCC(C)C1NCCOc2ccccc2C#CCNC(=O)C(Cc2ccc(Cl)cc2)NC(=O)C(C(C)O)N(C)C1=O (stereo not shown) [Compound 1704]
64.3 μL/min/mg protein |  | 10 to 100 nM | 100 to 500 nM | CC[C@@H]1CCc2c(F)cccc2OCCN[C@@H](C(C)C)C(=O)N(C)[C@@H](C(C)O)C(=O)N[C@H](Cc2ccc(F)cc2)C(=O)N1 (stereo partly shown) [Compound 1723]
66.5 μL/min/mg protein |  | 10 to 100 nM | 100 to 500 nM | CC[C@@H]1CCc2c(F)cccc2OCCN[C@@H](C(C)C)C(=O)N(C)[C@@H](C(C)O)C(=O)N[C@H](Cc2c[nH]c3ccccc23)C(=O)N1 (stereo partly shown) [Compound 1725]
83.9 μL/min/mg protein |  | 1 to 10 nM | 50 to 100 nM | CCC(C)C1NCCOc2ccccc2C=CCNC(=O)C(Cc2ccccc2C)NC(=O)C(C(C)O)N(C)C1=O (stereo not shown) [Compound 1737]
53.2 μL/min/mg protein |  | 1 to 10 nM | 10 to 50 nM | CCC(C)C1NCCOc2ccccc2C=CCNC(=O)C(Cc2ccccc2Cl)NC(=O)C(C(C)O)N(C)C1=O (stereo not shown) [Compound 1738]
26.1 μL/min/mg protein | B (B = 1-10 nM) | 1 to 10 nM | 100 to 500 nM | CCC(C)C1NCCOc2cc(F)ccc2C=CCNC(=O)C(Cc2ccc(Cl)cc2)NC(=O)C(C(C)O)N(C)C1=O (stereo not shown) [Compound 1739]
28.3 μL/min/mg protein | C (C = 10-100 nM) | 1 to 10 nM | 100 to 500 nM | CCC(C)C1NCCOc2ccc(F)cc2C=CCNC(=O)C(Cc2ccc(Cl)cc2)NC(=O)C(C(C)O)N(C)C1=O (stereo not shown) [Compound 1740]
157.4 μL/min/mg protein |  | 10 to 100 nM | 10 to 50 nM | CC(O)[C@H]1C(=O)N[C@H](Cc2ccc(Cl)cc2)C(=O)N[C@H](C)CCc2ccccc2OCCN[C@@H](C(C)(C)C)C(=O)N1C (stereo partly shown) [Compound 1742]
117.0 μL/min/mg protein |  | 10 to 100 nM | 100 to 500 nM | CC(O)[C@H]1C(=O)N[C@H](Cc2c[nH]c3ccccc23)C(=O)N[C@H](C)CCc2ccccc2OCCN[C@@H](C2CC2)C(=O)N1C (stereo partly shown) [Compound 1745]
90.4 μL/min/mg protein |  | 1 to 10 nM | 10 to 50 nM | CC(C)[C@@H]1NCCOc2cc(F)ccc2CC[C@@H](C)NC(=O)[C@@H](Cc2ccc(Cl)cc2)NC(=O)[C@H](C(C)O)N(C)C1=O (stereo partly shown) [Compound 1758]
34.8 μL/min/mg protein |  | 1 to 10 nM | 50 to 100 nM | CC[C@@H]1C#Cc2ccc(F)cc2OCCN[C@@H](C(C)C)C(=O)N(C)[C@@H](C(C)O)C(=O)N[C@H](Cc2cccc(F)c2)C(=O)N1 (stereo partly shown) [Compound 1760]
77.0 μL/min/mg protein |  | 10 to 100 nM | 50 to 100 nM | CCC(C)C1NCCOc2ccccc2C=CCNC(=O)C(Cc2ccc(Cl)cc2Cl)NC(=O)C(C(C)O)N(C)C1=O (stereo not shown) [Compound 1761]
73.4 μL/min/mg protein |  | 10 to 100 nM | 100 to 500 nM | CC(O)[C@H]1C(=O)N[C@H](Cc2c[nH]c3ccccc23)C(=O)N[C@H](C)CCc2ccccc2OCCN[C@@H](C(C)(C)C)C(=O)N1C (stereo partly shown) [Compound 1762]
